Laboratory results as given in US7423157B2, “Substituted benzimidazoles and their use for inducing apoptosis” (Basilea Pharmaceutica AG, priority 2004, dated 2008).

Legend:
Jurkat [1] = test: Hoechst 33342 nuclear staining, Jurkat; format: cell-based, human; conditions: 48 h
Method: (§1) This assay is performed in 96 well tissue culture plates. Appropriate number of cells (adherent cells: 3-5*10^3, suspension cells: 8-10*10^3) are being seeded out in 80 μl complete medium. Adherent cells are incubated for 24 h for proper spreading out before addition of test compounds while suspension cells are immediately treated with test compounds after seeding out. The test compounds are added in 20 μl complete medium containing max 5% DMSO. The final compound concentrations in the assays are 10 μM, 3 μM, 1 μM and 0.3 μM, respectively. […] The assay plates are then further incubated for 30 minutes and subsequently analyzed with a standard inverted fluorescence microscope.
(§2) The readout allows the determination of the fraction of apoptotic nuclei as well as other morphological criteria specific for apoptosis as a function of the treatment. The following scores are used: 0 relating to no activity, 1 relating to weak activity comprising less than 50% of the cells and score 2 relating to strong activity comprising more than 50% of the cells.

HeLa [2] = test: MTS proliferation assay, HeLa; format: cell-based, human; conditions: 72 h incubation
Method: (§3) The assay is performed in 96 well tissue culture plates. The cells (range: 1.5*10^3-10^4) are seeded out in 80 μl complete medium 24 h prior to compound treatment. The test compounds are added in 20 μl complete medium containing max 5% DMSO. The final compound concentrations in the assays are 10 μM, 3 μM, 1 μM and 0.3 μM, respectively. The assay plates are incubated for 72 h at culture conditions. The MTS reagent is prepared according to the manufacturer's protocol (Promega G1111). 20 μl MTS reagent are added to each well, the assay plates are quickly spun and incubated for another 3 h at culture conditions. Subsequently, the plates are shortly shaked and absorption measured with a microplate-reader at 492 nm.

Jily = test: Hoechst 33342 nuclear staining, Jily; format: cell-based; conditions: 48 h
Method: as §1, §2

H460 = test: Hoechst 33342 nuclear staining, H460; format: cell-based, human; conditions: H460, 48 h
Method: as §1, §2

HeLa [3] = test: Hoechst 33342 nuclear staining, HeLa; format: cell-based, human; conditions: 48 h
Method: as §1, §2

Jurkat [4] = test: MTS proliferation assay, Jurkat; format: cell-based, human; conditions: 72 h incubation
Method: as §3

PBLs = test: Hoechst 33342 nuclear staining, PBLs; format: cell-based; set-up: key: 0 = no activity, 1 = weak (<50% of cells), 2 = strong (>50% of cells); conditions: 48 h
Method: as §1, §2

MRC5 = test: Hoechst 33342 nuclear staining, MRC5; format: cell-based; set-up: key: 0 = no activity, 1 = weak (<50% of cells), 2 = strong (>50% of cells); conditions: MRC5, 48 h
Method: as §1, §2

Row | SMILES | Hoechst 33342 nuclear staining score (Jurkat [1]; conc. 0.3 (μM)) | Hoechst 33342 nuclear staining score (Jurkat [1]; conc. 1 (μM)) | Hoechst 33342 nuclear staining score (Jurkat [1]; conc. 3 (μM)) | Hoechst 33342 nuclear staining score (Jurkat [1]; conc. 10 (μM)) | IC50 (HeLa [2]) | Hoechst 33342 nuclear staining score (Jily; conc. 0.3 (μM)) | Hoechst 33342 nuclear staining score (Jily; conc. 1 (μM)) | Hoechst 33342 nuclear staining score (Jily; conc. 3 (μM)) | Hoechst 33342 nuclear staining score (Jily; conc. 10 (μM)) | Hoechst 33342 nuclear staining score (H460; conc. 0.3 (μM)) | Hoechst 33342 nuclear staining score (H460; conc. 1 (μM)) | Hoechst 33342 nuclear staining score (H460; conc. 3 (μM)) | Hoechst 33342 nuclear staining score (H460; conc. 10 (μM)) | Hoechst 33342 nuclear staining score (HeLa [3]; conc. 0.3 (μM)) | Hoechst 33342 nuclear staining score (HeLa [3]; conc. 1 (μM)) | Hoechst 33342 nuclear staining score (HeLa [3]; conc. 3 (μM)) | Hoechst 33342 nuclear staining score (HeLa [3]; conc. 10 (μM)) | IC50 (Jurkat [4]) | Hoechst 33342 nuclear staining score (PBLs; conc. 0.3 (μM)) | Hoechst 33342 nuclear staining score (PBLs; conc. 1 (μM)) | other results
1 | COc1cccc(/C=C/C(=O)Cn2c(-n3ncnc3N)nc3ccccc32)c1 [Example 9] | 0 | 0 | 0 | 2 (score 2 relating to strong activity comprising more than 50% of the cells) | > 1000 nM | 0 | 0 | 0 | 2 (score 2 relating to strong activity comprising more than 50% of the cells) | 0 | 0 | 0 | 2 (score 2 relating to strong activity comprising more than 50% of the cells) | 0 | 0 | 0 | 2 (score 2 relating to strong activity comprising more than 50% of the cells) | > 1000 nM | 0 | 0 | Hoechst 33342 nuclear staining score (PBLs; conc. 3 (μM)): 0; Hoechst 33342 nuclear staining score (PBLs; conc. 10 (μM)): 2 (score 2 relating to strong activity comprising more than 50% of the cells); Hoechst 33342 nuclear staining score (MRC5; conc. 0.3 (μM)): 0; Hoechst 33342 nuclear staining score (MRC5; conc. 1 (μM)): 0; Hoechst 33342 nuclear staining score (MRC5; conc. 3 (μM)): 0; Hoechst 33342 nuclear staining score (MRC5; conc. 10 (μM)): 0
2 | Nc1ccc(C(=O)Cn2c(-n3ncnc3N)nc3ccccc32)cn1 [Example 14] | 2 (score 2 relating to strong activity comprising more than 50% of the cells) | 2 (score 2 relating to strong activity comprising more than 50% of the cells) | 2 (score 2 relating to strong activity comprising more than 50% of the cells) | 2 (score 2 relating to strong activity comprising more than 50% of the cells) | 100 to 1000 nM | 2 (score 2 relating to strong activity comprising more than 50% of the cells) | 2 (score 2 relating to strong activity comprising more than 50% of the cells) | 2 (score 2 relating to strong activity comprising more than 50% of the cells) | 2 (score 2 relating to strong activity comprising more than 50% of the cells) | 2 (score 2 relating to strong activity comprising more than 50% of the cells) | 2 (score 2 relating to strong activity comprising more than 50% of the cells) | 2 (score 2 relating to strong activity comprising more than 50% of the cells) | 2 (score 2 relating to strong activity comprising more than 50% of the cells) | 2 (score 2 relating to strong activity comprising more than 50% of the cells) | 2 (score 2 relating to strong activity comprising more than 50% of the cells) | 2 (score 2 relating to strong activity comprising more than 50% of the cells) | 2 (score 2 relating to strong activity comprising more than 50% of the cells) | < 100 nM | 0 | 0 | Hoechst 33342 nuclear staining score (PBLs; conc. 3 (μM)): 0; Hoechst 33342 nuclear staining score (PBLs; conc. 10 (μM)): 0; Hoechst 33342 nuclear staining score (MRC5; conc. 0.3 (μM)): 1 (1 relating to weak activity comprising less than 50% of the cells); Hoechst 33342 nuclear staining score (MRC5; conc. 1 (μM)): 1 (1 relating to weak activity comprising less than 50% of the cells); Hoechst 33342 nuclear staining score (MRC5; conc. 3 (μM)): 1 (1 relating to weak activity comprising less than 50% of the cells); Hoechst 33342 nuclear staining score (MRC5; conc. 10 (μM)): 1 (1 relating to weak activity comprising less than 50% of the cells)
